Reference: patent publication US4428938A, “Peptides affecting the immune regulation and a process for their preparation” (Richter Gedeon Vegyeszeti Gyar Rt., priority 1981, dated 1984)
Residues, ends and D or L forms follow the SMILES beside them.

Key:
[1] = system: lymphocytes forming the E-rosette; test: E-rosette formation, summary statement; type: cell-based
Method: (§1) The active E-rosette test was carried out according to a modified method of Wybran et al [Wybran et al: New Engl. J. Med. 292, 475 (1975)] by the lymphocites of healthy and autoimmune patients (rheumatoid arthritis and systemic lupus erythematosus). To 50 μl of a lymphocyte cell suspension 10^-3 -10^-11 moles/lit. solutions of the test material were added and the mixture was incubated in an atmosphere containing 5.0% of carbon dioxide, at 37° C. for 60 minutes. Thereafter 50 μlit. of a 1% sheep erythrocite suspension were added and the mixture was centrifuged at 1000 r.p.m. for 10 minutes followed by shaking with a modified Gallenkampf-shaker (shaking time: 30 sec, stroke: 8 cm, shaking frequency: 65/min.). The rosettes were fixed with a 0.1% glutaric aldehyde (50 μlit. for each tube, 3 min.). Lymphocytes bonding more than three sheep erythrocite were counted under a microscope and 4×100 cells were evaluated. The separated lymphocytes contain macrophages and polymorphonuclear cells (up to 10%) as an impurity. The number of the cells forming the rosettes was corrected by this value each case.

[2] = system: antibody production against sheep erythrocyte; test: Effect on antibody production (Ceglowski's method), agglutination titer; type: in vivo, H. Wistar rats; details: single 25 μlit. dose of 4·10^-8 moles/liter to new-born rats
[3] = system: plaque forming spleen cells (PFC); test: Effect on plaque forming spleen cells (PFC); type: in vivo, H. Wistar rats; details: for Ratio of the plaque formation produced by treated and untreated (control) animals: new-born animals
Method: (2) The number of the cells producing a specific antibody was determined by the method of Canningham Handbook of Experimental Immunology (editor: D. M. Weir), 2nd Volume, p. 285, Blackwell, Oxford-London (1978). According to this method from the spleen cells of immunized animals, sheep erythrocyte suspension and complement a homogenous suspension was prepared and it was placed into a chamber suitable for forming a single cell layer. Around the spleen cells lytic areolas are formed, the number of which is identical with the number of the cells producing a specific antibody (plaque forming cells, PFC).
The test animals, not later than 12 hour after birth, were given a single i.p. dose of the test material. According to the method (1) three different doses of each substance were tested. On the 7th day after immunization the plaque formation of the spleen cells isolated from the animals was examined.

[4] = system: antibody production against sheep erythrocyte; test: Effect on antibody production (Ceglowski's method), agglutination titer; type: in vivo, H. Wistar rats
Method: (1) The effect on antibody production was tested according to Ceglowski's method [Ceglowski: Ann. N.Y. Acad. Sci. 249, 343 (1975)]. New-born H. Wistar rats were treated with single 25 μlit. doses of 4×10^-3 -4×10^-7 moles/lit. of the test material (9 animals for each dose) at the latest at the 12th hour after birth. The 14-day animals were then immunized with a sheep erythrocyte suspension administering 0.5 ml. of a 5% sheep erythrocyte suspension each animal intraperitoneally. On the 7th day after immunization the animals were decapitated. The blood of three animals was mixed and from the serum obtained (after centrifuging at 3000 r.p.m. for 10 minutes) the titers for antibodies were determined by the method of Takatsy [Takatsy: Acta Microbiol. Acad. Sci. Hung. 3, 191 (1955)]. The results are expressed in agglutination titers. The titer corresponds to the […] dilution of the serum in which agglutination can be observed.

[5] = system: lymphocytes of patients suffering from rheumatoid arthritis; test: Active E-rosette test, lymphocytes of rheumatoid arthritis patients; type: cell-based, human; details: for E-rosette forming activity, percentage amount of active lymphocytes: n = 4; for Effect on E-rosette forming activity (in words): 10^-9 moles/lit.
Method: as §1

[6] = system: lymphocytes of healthy persons; test: Active E-rosette test, lymphocytes of healthy persons; type: cell-based, human; details: for E-rosette forming activity, percentage amount of active lymphocytes: n = 4
Method: as §1

With N=C(N)NCCC[C@H](N)C(=O)N[C@@H](CCCCN)C(=O)N[C@@H](CC(=O)O)C(=O)O [Arg--Lys--Asp, Arg-Lys-Asp] (H-Arg-Lys-Asp-OH) the “Activity: increases the number of the lymphocytes forming the E-rosette” value [1] was “active”, the “Antibody production, agglutination titer (X ± S.D.)” value (“Antibody production … (X ± S.D.)” below) [2] was 6.0 ± 1.2 and the “In vivo effect on plaque forming spleen cells (in words)” value ([3]; in lower doses) was “about two-times increase”. The “Ratio of the plaque formation produced by treated and untreated (control) animals” value (from here on “Ratio of the plaque formation produced”) ([3]; single i.p. dose 1.0·10^-4 mmoles) was 0.7, the “Ratio of the plaque formation produced” value ([3]; single i.p. dose 1.0·10^-6 mmoles) was 2.1 and the “Ratio of the plaque formation produced” value ([3]; single i.p. dose 1.0·10^-8 mmoles) was 1.8. The “In vivo effect on the antibody production (in words)” value ([4]; 4.10^-6 moles/lit.) was “significant stimulating activity”, the “Antibody production … (X ± S.D.)” value ([4]; single 25 μlit. dose of 4·10^-4 moles/liter to new-born rats) was 6.0 ± 0 and the “Antibody production … (X ± S.D.)” value ([4]; single 25 μlit. dose of 4·10^-6 moles/liter to new-born rats) was 7.3 ± 0.6. For the same compound, the “E-rosette forming activity, percentage amount of active lymphocytes” value ([5]; 10^-3 moles/liter) was 27.2%, the “E-rosette forming activity, percentage amount of active lymphocytes” value ([5]; 10^-5 moles/liter) was 28.6% and the “E-rosette forming activity, percentage amount of active lymphocytes” value ([5]; 10^-7 moles/liter) was 28.8%. The “Effect on E-rosette forming activity (in words)” value [5] was “significantly stimulated”, the “E-rosette forming activity, percentage amount of active lymphocytes” value ([5]; 10^-9 moles/liter) was 30.7% and the “E-rosette forming activity, percentage amount of active lymphocytes” value ([5]; 10^-11 moles/liter) was 28.4%. For the same compound, the “E-rosette forming activity, percentage amount of active lymphocytes” value ([6]; 10^-3 moles/liter) was 29.9%, the “E-rosette forming activity, percentage amount of active lymphocytes” value ([6]; 10^-5 moles/liter) was 34.1% and the “Effect on E-rosette forming activity (in words)” value ([6]; 10^-7 moles/lit.) was “significant stimulating effect”. The “E-rosette forming activity, percentage amount of active lymphocytes” value ([6]; 10^-7 moles/liter) was 41.7%, the “E-rosette forming activity, percentage amount of active lymphocytes” value ([6]; 10^-9 moles/liter) was 39.3% and the “E-rosette forming activity, percentage amount of active lymphocytes” value ([6]; 10^-11 moles/liter) was 35.9%.
CC(C)[C@H](NC(=O)[C@H](CC(=O)O)NC(=O)[C@H](CCCCN)NC(=O)[C@@H](N)CCCNC(=N)N)C(=O)O [Arg--Lys--Asp--Val, Arg-Lys-Asp-Val] (H-RKDV-OH) was tested, and the “Activity: increases the number of the lymphocytes forming the E-rosette” value [1] was “active”, the “Ratio of the plaque formation produced” value ([3]; single i.p. dose 2.5·10^-3 mmoles) was 0.34 and the “Ratio of the plaque formation produced” value ([3]; single i.p. dose 2.5·10^-4 mmoles) was 0.8. The “E-rosette forming activity, percentage amount of active lymphocytes” value ([5]; 10^-3 moles/liter) was 36.2%, the “E-rosette forming activity, percentage amount of active lymphocytes” value ([5]; 10^-5 moles/liter) was 31.5% and the “E-rosette forming activity, percentage amount of active lymphocytes” value ([5]; 10^-7 moles/liter) was 34.4%. The “Effect on E-rosette forming activity (in words)” value [5] was “significantly stimulated”, the “E-rosette forming activity, percentage amount of active lymphocytes” value ([5]; 10^-9 moles/liter) was 36.8% and the “E-rosette forming activity, percentage amount of active lymphocytes” value ([5]; 10^-11 moles/liter) was 32.6%. For the same compound, the “E-rosette forming activity, percentage amount of active lymphocytes” value ([6]; 10^-3 moles/liter) was 41.3%, the “E-rosette forming activity, percentage amount of active lymphocytes” value ([6]; 10^-5 moles/liter) was 39.1% and the “E-rosette forming activity, percentage amount of active lymphocytes” value ([6]; 10^-7 moles/liter) was 38.5%. The “Effect on E-rosette forming activity (in words)” value ([6]; 10^-9 moles/lit.) was “significant stimulating effect”, the “E-rosette forming activity, percentage amount of active lymphocytes” value ([6]; 10^-9 moles/liter) was 43.0% and the “E-rosette forming activity, percentage amount of active lymphocytes” value ([6]; 10^-11 moles/liter) was 33.7%.
